What was measured:
[1] = system: MDA-MB-231 tumor xenograft; test: In vivo efficacy in MDA-MB-231 tumor xenograft; set-up: species or system female athymic nude mice; details: Kaplan Meier
Description: Female athymic nude mice, 6 weeks of age, were purchased from Envigo Corporation.
Human breast cancer cell lines MDA-MB-231 were purchased from ATCC and were cultured and expanded in DMEM medium supplemented with 10% FBS, 100 units/ml of penicillin and 100 μg/ml of streptomycin at 37° C. in a 5% CO2 humidified environment for a period of 2-3 weeks before harvesting for implantation. Cell viability determined by Trypan blue dye exclusion assay was >90% before implantation. 4 million MDA-MB-231 cells in 100 μl of PBS were inoculated to the right upper flank of each mouse by s.c. injection.
Tumor volume measurement was started at day 25 after tumor cell inoculation and performed twice weekly. The longest longitudinal diameter as length and the widest transverse diameter as width were measured by using a digital caliper. Tumor volume (TV) was then calculated by the formula: TV=[length×(width)^2]/2 and were analyzed in Excel.
The treatment was started when average tumor size reached ˜400 mm^3.
Mice were euthanized when tumor size reached 2000 mm^3.
After tumor-bearing mice were randomized, 0.9% saline, anti-PDL1, Irinotecan 15, albumin bound non-toxic paclitaxel (NTP), free SN-38 at 7.5 and 15 mg/kg (SN38 7.5 and 15), albumin bound SN-38 at 7.5 and 15 mg/kg (Nab 7.5 and 15), anti-PDL1 plus SN38 Nab delivered at the same time in separate injections (PDL1+Nab15), or anti-PDL1 coated albumin bound SN-38 at 7.5 and 15 mg/kg (NIC 7.5 and NIC 15) were administered. Albumin bound SN-38 (Nab) and anti-PDL1 coated SN-38 Nab (NIC) were made as described above. Drugs were diluted in 0.9% saline and administered to the athymic nude mice in 100 μl by IV injections in the tail vein. SN-38 in all forms was given at 7.5 and 15 mg/kg in a single dose.
Raw data of tumor measurements (FIG. 7A-FIG. 7K) were analyzed in Excel. Tumor growth curves, day 7 tumor response and Kaplan-Meier survival curves were plotted using GraphPad Prism 8.0 software. Data from day 7 tumor response were compared using student's t-test. P values of less than 0.05 were considered significant (FIG. 8).
In MDA-MB-231 tumor xenograft model tumor responses were determined at day 7 using the equation: {([…])/tumor size day 0}*100. Differences in tumor response were determined by student's t-test in GraphPad Prism software 8.0. Percent change above the zero line indicates tumor growth, and below the zero line indicates tumor shrinking. […]
Kaplan Meier curves for the MDA-MB-231 xenotransplant model were generated in GraphPad Prism software 8.0 and median survival was determined to be 28, 34, 30, 24.5, 30, and 42.5 for the saline, anti-PDL1, Irinotecan 15, NTP, free SN38 7.5, and free SN38 15, respectively. […]

[2] = molecular target: nab-paclitaxel (Taxol) nanoparticles with SN38 (human) (UniProt P02768); test: zeta potential (Zetasizer), nanoparticles with 2, 4, 6 or 8 mg/ml antibody
[3] = molecular target: T1, SN38:NTP Nab (albumin nanoparticles made with non-toxic paclitaxel derivative and SN38) (human, UniProt P02768 25-609); test: zeta potential (Zetasizer), SN38:NTP:STI3031 NIC against SN38:NTP Nab
T1 construct: also called SN38 Nab

Molecule: CCc1c2c(nc3ccc(O)cc13)-c1cc3c(c(=O)n1C2)COC(=O)[C@]3(O)CC [SN38]
- median survival ([1]; 7.5 mg/kg, single IV dose): 30
- median survival ([1]; 15 mg/kg, IV): 42.5

Molecule: anti-PDL1: anti-PDL1 H6B1L-EM antibody (STI3031), HC/LC SEQ ID NO. 1/SEQ ID NO. 2
- median survival ([1]; IV injection, dose not given): 34

Molecule: CCc1c2c(nc3ccc(OC(=O)N4CCC(N5CCCCC5)CC4)cc13)-c1cc3c(c(=O)n1C2)COC(=O)[C@]3(O)CC [Irinotecan, irinotecan]
- median survival ([1]; 15 mg/kg, IV): 30

B1: anti-PDL1 H6B1L-EM antibody (STI3031) (antibody, human IgG1, lambda, V domains shown)
VH: QMQLVQSGAEVKKPGSSVKVSCKASGGTFSSYAYSWVRQAPGQGLEWMGGIIPSFGTANYAQKFQGRVTITADESTSTAYMELSSLRSEDTAVYYCARGPIVATITPLDYWGQGTLVTVSS
VL: SYVLTQPPSVSVAPGKTATIACGGENIGRKTVHWYQQKPGQAPVLVIYYDSDRPSGIPERFSGSNSGNTATLTISRVEAGDEADYYCLVWDSSSDHRIFGGGTKLTVLG
notes: also called PDL1 antibody
- antibody concentration at which zeta potential reaches its maximum [2]: 4 mg/mL
- binding result [3]: binds
